Data reported in publication PMC10746543, “Design principles for cyclin K molecular glue degraders” (Nature Chemical Biology, 2023).
Several values for one entry are separate records, joined by “and”; a condition that tells them apart may be missing. Equal entries are not always repeated. Where two headings read alike, the source gives them in different places. Each block holds one compound with its values, some of them ahead of it.

Legend:
CDK12–cyclin K and DDB1 = biological target: T1, CDK12–cyclin K and DDB1 (Homo sapiens, UniProt Q16531+Q9NYV4, K965R); assay: TR-FRET ternary complex formation assay (compound titration); format: binding
T1 construct: His6–CDK12 (a.a. 713–1,052); full-length or beta-propeller B domain deletion (ΔBPB: a.a. 396–705 deleted) constructs of His6–DDB1ΔBPB, StrepII–Avi–DDB1, or His6–Spy–DDB1; made in house; host or cells: Trichoplusia ni High Five insect cells (baculovirus)
Procedure, shortened: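 Delayed (70 μs) time-resolved read; FRET computed as 520 nm over 490 nm emission.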

[1] = test system: cyclin K–eGFP degradation reporter; assay: Cyclin K reporter stability analysis (dual-color cyclin K–eGFP reporter); format: cell-based, human
Procedure, shortened: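 A 5 h treatment of HEK293T–Cas9 cells expressing the degradation reporter preceded flow cytometry; eGFP over mCherry, normalized to DMSO.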

HEK293T cells = assay: Drug sensitivity assay (CellTiter-Glo viability) with or without MLN4924 pretreatment; format: cell-based, human; settings: for EC50: Homo sapiens, HEK-293T; for Toxicity rescue: MLN4924-mediated cytotoxicity rescue, 10 µM used where n.d.
Procedure, shortened: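 Viability of HEK293T–Cas9 cells was compared after 3-day drug treatment with or without 100 nM MLN4924 pretreatment (2 h, versus DMSO). Values are CellTiter-Glo signals relative to DMSO controls.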

[2] = compound concentration 4.68 nM, raw titration data
[3] = compound concentration 21.6 nM, raw titration data
[4] = compound concentration 36 nM, raw titration data
[5] = compound concentration 79.2001 nM, raw titration data
[6] = compound concentration 158.4 nM, raw titration data
[7] = compound concentration 309.6 nM, raw titration data
[8] = compound concentration 626.401 nM, raw titration data
[9] = compound concentration 1252.8 nM, raw titration data
[10] = compound concentration 2448 nM, raw titration data
[11] = compound concentration 9936.01 nM, raw titration data
[12] = compound concentration 20016 nM, raw titration data
[13] = sheet MOESM7, read-out: log TR-FRET EC50 (converted)
[14] = source data sheet correlations, read-out: TR-FRET EC50
[15] = source data sheet correlations, read-out: DC50
[16] = Supplementary Table 2, HEK293T viability, 72 h, compound alone, read-out: Cellular assays EC50
[17] = Supplementary Table 2, read-out: TR-FRET EC50 TR-FRET
[18] = in vitro complex formation, 50 nM CDK12–cyclin K, 100 nM DDB1, text and figures, read-out: TR-FRET EC50
[19] = Supplementary Table 2, HEK293T cycK-eGFP reporter, 5 h, read-out: Cellular assays DC50

T1 sequence (Q9NYV4 713-1052 K965R): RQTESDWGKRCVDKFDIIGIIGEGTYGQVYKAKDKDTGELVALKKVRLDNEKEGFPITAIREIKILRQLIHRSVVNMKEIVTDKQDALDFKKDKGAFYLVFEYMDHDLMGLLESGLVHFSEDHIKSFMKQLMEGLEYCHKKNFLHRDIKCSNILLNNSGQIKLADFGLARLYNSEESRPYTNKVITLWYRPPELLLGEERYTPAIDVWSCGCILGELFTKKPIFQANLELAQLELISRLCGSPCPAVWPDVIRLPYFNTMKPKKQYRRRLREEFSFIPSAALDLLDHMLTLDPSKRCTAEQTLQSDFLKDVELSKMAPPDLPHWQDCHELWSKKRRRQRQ
T1 sequence (O75909 1-267 partner): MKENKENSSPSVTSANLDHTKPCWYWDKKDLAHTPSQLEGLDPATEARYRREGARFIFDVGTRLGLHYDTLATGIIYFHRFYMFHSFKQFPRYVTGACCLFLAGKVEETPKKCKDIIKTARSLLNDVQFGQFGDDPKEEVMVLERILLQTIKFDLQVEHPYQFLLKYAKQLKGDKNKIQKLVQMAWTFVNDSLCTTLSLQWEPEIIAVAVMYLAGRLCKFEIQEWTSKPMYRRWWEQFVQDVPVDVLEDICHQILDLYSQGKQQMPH
T1 sequence (Q16531 whole entry): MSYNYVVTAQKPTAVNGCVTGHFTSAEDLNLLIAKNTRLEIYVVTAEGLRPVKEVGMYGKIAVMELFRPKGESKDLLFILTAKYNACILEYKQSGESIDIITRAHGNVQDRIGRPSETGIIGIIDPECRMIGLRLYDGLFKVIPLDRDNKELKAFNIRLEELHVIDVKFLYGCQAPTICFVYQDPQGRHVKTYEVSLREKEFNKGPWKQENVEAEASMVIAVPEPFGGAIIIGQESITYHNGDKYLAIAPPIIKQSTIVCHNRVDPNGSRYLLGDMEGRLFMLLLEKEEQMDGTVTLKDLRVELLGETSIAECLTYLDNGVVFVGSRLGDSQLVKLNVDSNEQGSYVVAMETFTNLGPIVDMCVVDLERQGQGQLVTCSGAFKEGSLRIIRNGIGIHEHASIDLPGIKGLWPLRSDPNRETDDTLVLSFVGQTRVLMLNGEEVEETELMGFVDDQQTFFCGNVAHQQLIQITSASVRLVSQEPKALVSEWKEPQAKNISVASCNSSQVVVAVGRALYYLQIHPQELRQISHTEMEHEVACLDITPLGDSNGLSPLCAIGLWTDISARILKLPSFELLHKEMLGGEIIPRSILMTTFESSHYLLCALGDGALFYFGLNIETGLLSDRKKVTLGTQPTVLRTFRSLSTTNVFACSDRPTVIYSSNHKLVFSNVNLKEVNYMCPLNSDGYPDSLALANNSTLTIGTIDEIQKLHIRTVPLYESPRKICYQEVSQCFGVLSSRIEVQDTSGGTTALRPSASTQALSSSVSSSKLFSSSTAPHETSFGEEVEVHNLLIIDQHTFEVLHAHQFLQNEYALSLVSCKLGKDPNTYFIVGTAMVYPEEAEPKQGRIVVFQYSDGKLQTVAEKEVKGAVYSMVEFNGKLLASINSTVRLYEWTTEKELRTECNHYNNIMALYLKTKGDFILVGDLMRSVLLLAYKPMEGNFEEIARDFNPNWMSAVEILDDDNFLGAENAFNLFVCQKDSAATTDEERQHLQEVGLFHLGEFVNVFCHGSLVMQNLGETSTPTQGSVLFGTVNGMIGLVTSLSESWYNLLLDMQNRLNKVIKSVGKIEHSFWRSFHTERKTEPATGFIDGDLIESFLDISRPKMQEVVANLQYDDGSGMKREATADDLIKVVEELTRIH

TR-FRET signal at compound concentration 4.68 nM (CDK12–cyclin K and DDB1; [2]): 0.2095 and 0.2212
TR-FRET signal at compound concentration 21.6 nM (CDK12–cyclin K and DDB1; [3]): 0.2225 and 0.2323
TR-FRET signal at compound concentration 36 nM (CDK12–cyclin K and DDB1; [4]): 0.253 and 0.2736
TR-FRET signal at compound concentration 79.2001 nM (CDK12–cyclin K and DDB1; [5]): 0.3096 and 0.3199
TR-FRET signal at compound concentration 158.4 nM (CDK12–cyclin K and DDB1; [6]): 0.4094 and 0.4186
TR-FRET signal at compound concentration 309.6 nM (CDK12–cyclin K and DDB1; [7]): 0.5758 and 0.5879
TR-FRET signal at compound concentration 626.401 nM (CDK12–cyclin K and DDB1; [8]): 0.9565 and 0.9048
TR-FRET signal at compound concentration 1252.8 nM (CDK12–cyclin K and DDB1; [9]): 1.567 and 1.497
TR-FRET signal at compound concentration 2448 nM (CDK12–cyclin K and DDB1; [10]): 2.482 and 2.457
TR-FRET signal at compound concentration 9936.01 nM (CDK12–cyclin K and DDB1; [11]): 3.626 and 3.7316
TR-FRET signal at compound concentration 20016 nM (CDK12–cyclin K and DDB1; [12]): 3.761 and 3.946
EC50 (CDK12–cyclin K and DDB1; [13]): 1920 nM
EC50 (CDK12–cyclin K and DDB1; [14]): 1920 nM
DC50 [1, 15]: 3570 nM
SMILES: COc1ccccc1CCNC(=O)CNc1nc(NCc2ccc(-c3ccccn3)cc2)c2ncn(C(C)C)c2n1 [DS50]
EC50 (HEK293T cells; [16]): > 10000 nM
Toxicity rescue (HEK293T cells; Supplementary Table 2): 0%

EC50 (CDK12–cyclin K and DDB1; [17]): 274 nM
TR-FRET signal at compound concentration 4.68 nM (CDK12–cyclin K and DDB1; [2]): 0.2297 and 0.2444
TR-FRET signal at compound concentration 21.6 nM (CDK12–cyclin K and DDB1; [3]): 0.3216 and 0.3313
TR-FRET signal at compound concentration 36 nM (CDK12–cyclin K and DDB1; [4]): 0.5067 and 0.5037
TR-FRET signal at compound concentration 79.2001 nM (CDK12–cyclin K and DDB1; [5]): 0.816 and 0.7927
TR-FRET signal at compound concentration 158.4 nM (CDK12–cyclin K and DDB1; [6]): 1.255 and 1.244
TR-FRET signal at compound concentration 309.6 nM (CDK12–cyclin K and DDB1; [7]): 1.886 and 1.872
TR-FRET signal at compound concentration 626.401 nM (CDK12–cyclin K and DDB1; [8]): 2.526 and 2.552
TR-FRET signal at compound concentration 1252.8 nM (CDK12–cyclin K and DDB1; [9]): 3.049 and 3.029
TR-FRET signal at compound concentration 2448 nM (CDK12–cyclin K and DDB1; [10]): 3.216 and 3.3184
TR-FRET signal at compound concentration 9936.01 nM (CDK12–cyclin K and DDB1; [11]): 3.256 and 3.415
TR-FRET signal at compound concentration 20016 nM (CDK12–cyclin K and DDB1; [12]): 3.017 and 3.197
EC50 (CDK12–cyclin K and DDB1; [18]): 275 ± 16 nM
EC50 (CDK12–cyclin K and DDB1; [13]): 274 nM
DC50 [1, 19]: > 10000 nM
SMILES: CC(C)n1cnc2c(NCc3ccc(-c4ccccn4)cc3)nc(NCCCCCC(=O)N[C@H]3O[C@H](CO)[C@@H](O)[C@H](O)[C@H]3O)nc21 [DS51]
EC50 (HEK293T cells; [16]): > 10000 nM
Toxicity rescue (HEK293T cells; Supplementary Table 2): 0%

TR-FRET signal at compound concentration 0.468 nM (CDK12–cyclin K and DDB1; compound concentration 0.468 nM, raw titration data): 0.2712 and 0.18 and 0.1818
TR-FRET signal at compound concentration 2.16 nM (CDK12–cyclin K and DDB1; compound concentration 2.16 nM, raw titration data): 0.3079 and 0.2048 and 0.2158
TR-FRET signal at compound concentration 3.6 nM (CDK12–cyclin K and DDB1; compound concentration 3.6 nM, raw titration data): 0.3797 and 0.262 and 0.2749
TR-FRET signal at compound concentration 7.92001 nM (CDK12–cyclin K and DDB1; compound concentration 7.92001 nM, raw titration data): 0.5132 and 0.3757 and 0.3886
TR-FRET signal at compound concentration 15.84 nM (CDK12–cyclin K and DDB1; compound concentration 15.84 nM, raw titration data): 0.7262 and 0.5713 and 0.5982
TR-FRET signal at compound concentration 30.96 nM (CDK12–cyclin K and DDB1; compound concentration 30.96 nM, raw titration data): 1.044 and 0.9086 and 0.9152
TR-FRET signal at compound concentration 62.6401 nM (CDK12–cyclin K and DDB1; compound concentration 62.6401 nM, raw titration data): 1.465 and 1.176 and 1.2036
TR-FRET signal at compound concentration 125.28 nM (CDK12–cyclin K and DDB1; compound concentration 125.28 nM, raw titration data): 1.697 and 1.379 and 1.374
TR-FRET signal at compound concentration 244.8 nM (CDK12–cyclin K and DDB1; compound concentration 244.8 nM, raw titration data): 1.763 and 1.446 and 1.498
TR-FRET signal at compound concentration 993.601 nM (CDK12–cyclin K and DDB1; compound concentration 993.601 nM, raw titration data): 1.748 and 1.523 and 1.543
TR-FRET signal at compound concentration 2001.6 nM (CDK12–cyclin K and DDB1; compound concentration 2001.6 nM, raw titration data): 1.731 and 1.529 and 1.559
EC50 (CDK12–cyclin K and DDB1; [18]): 28 ± 2 nM
EC50 (CDK12–cyclin K and DDB1; [14]): 27.7 nM
DC50 [1, 15]: 260 nM
SMILES: CC[C@H](CO)Nc1nc(NCc2ccc(-c3ccncc3)nc2)c2ncn(C(C)C)c2n1 [DS53]
EC50 (HEK293T cells; [16]): 635 nM
Toxicity rescue (HEK293T cells; Supplementary Table 2): 140%

EC50 (CDK12–cyclin K and DDB1; [17]): 252 nM
TR-FRET signal (CDK12–cyclin K and DDB1; compound concentration 4.68 nM): 0.1326 and 0.1303
TR-FRET signal at compound concentration 4.68 nM (CDK12–cyclin K and DDB1; compound concentration 4.68 nM, raw replicate titration data): 0.1326 and 0.1303
TR-FRET signal (CDK12–cyclin K and DDB1; compound concentration 21.6 nM): 0.1333 and 0.1406
TR-FRET signal at compound concentration 21.6 nM (CDK12–cyclin K and DDB1; compound concentration 21.6 nM, raw replicate titration data): 0.1333 and 0.1406
TR-FRET signal (CDK12–cyclin K and DDB1; compound concentration 36 nM): 0.1624 and 0.1682
TR-FRET signal at compound concentration 36 nM (CDK12–cyclin K and DDB1; compound concentration 36 nM, raw replicate titration data): 0.1624 and 0.1682
TR-FRET signal (CDK12–cyclin K and DDB1; compound concentration 79.2001 nM): 0.2054 and 0.2174
TR-FRET signal at compound concentration 79.2001 nM (CDK12–cyclin K and DDB1; compound concentration 79.2001 nM, raw replicate titration data): 0.2054 and 0.2174
TR-FRET signal (CDK12–cyclin K and DDB1; compound concentration 158.4 nM): 0.3007
TR-FRET signal at compound concentration 158.4 nM (CDK12–cyclin K and DDB1; compound concentration 158.4 nM, raw replicate titration data): 0.3007
TR-FRET signal (CDK12–cyclin K and DDB1; compound concentration 309.6 nM): 0.4286 and 0.4588
TR-FRET signal at compound concentration 309.6 nM (CDK12–cyclin K and DDB1; compound concentration 309.6 nM, raw replicate titration data): 0.4286 and 0.4588
TR-FRET signal (CDK12–cyclin K and DDB1; compound concentration 626.401 nM): 0.5953 and 0.5848
TR-FRET signal at compound concentration 626.401 nM (CDK12–cyclin K and DDB1; compound concentration 626.401 nM, raw replicate titration data): 0.5953 and 0.5848
TR-FRET signal (CDK12–cyclin K and DDB1; compound concentration 1252.8 nM): 0.6865 and 0.6689
TR-FRET signal at compound concentration 1252.8 nM (CDK12–cyclin K and DDB1; compound concentration 1252.8 nM, raw replicate titration data): 0.6865 and 0.6689
TR-FRET signal (CDK12–cyclin K and DDB1; compound concentration 2448 nM): 0.7142 and 0.68
TR-FRET signal at compound concentration 2448 nM (CDK12–cyclin K and DDB1; compound concentration 2448 nM, raw replicate titration data): 0.7142 and 0.68
TR-FRET signal (CDK12–cyclin K and DDB1; compound concentration 9936.01 nM): 0.6777 and 0.6603
TR-FRET signal at compound concentration 9936.01 nM (CDK12–cyclin K and DDB1; compound concentration 9936.01 nM, raw replicate titration data): 0.6777 and 0.6603
TR-FRET signal (CDK12–cyclin K and DDB1; compound concentration 20016 nM): 0.6177 and 0.617
TR-FRET signal at compound concentration 20016 nM (CDK12–cyclin K and DDB1; compound concentration 20016 nM, raw replicate titration data): 0.6177 and 0.617
DC50 [1, 19]: > 10000 nM
SMILES: Cn1cc(-n2cnc3c(NCc4nc5cc(O)ccc5[nH]4)nc(N4CCOCC4)nc32)cn1 [DS54]
EC50 (HEK293T cells; Supplementary Fig. 5, HEK293T, CellTiter Glo, 72h, pre-treatment with 100 nM MLN4924, read-out: Viability EC50, with MLN4924): 3290 nM
EC50 (HEK293T cells; Supplementary Fig. 5, HEK293T, CellTiter Glo, 72h, read-out: Viability EC50, no MLN4924): 73 nM
EC50 (HEK293T cells; [16]): > 10000 nM
Toxicity rescue (HEK293T cells; Supplementary Table 2): 0%
